The results in this text go back to ChEMBL document CHEMBL3616474, “Synthesis of arabinose glycosyl sulfamides as potential inhibitors of mycobacterial cell wall biosynthesis” (2015).

Values after ≈ are worked out from the molar mass of the structure shown.

The assay relates to Mycolicibacterium smegmatis. Nature of the assay: Antimicrobial activity against Mycobacterium smegmatis incubated for 18 hrs by Alamar blue assay. It counts as functional. (The colour change of resazurin is a common sign of viable cells or microbes.)
What is called MIC90 is the lowest concentration that inhibits either 90% of growth or 90% of the strains tested, depending on the study. High values mean weaker potency, low ones greater potency. The compound `CCCCCCCCCCNS(N)(=O)=O` registered an MIC90 of 500 µg/mL (≈ 2120 µM).

The compound `CCCCCCNS(=O)(=O)N[C@H]1OC[C@@H](O)[C@@H](O)[C@@H]1O` gave an MIC90 of more than 1000 µg/mL.

For the compound `CCCCCCCCNS(=O)(=O)N[C@H]1OC[C@@H](O)[C@@H](O)[C@@H]1O`, the MIC90 is 500 µg/mL (≈ 1470 µM).

Take `CCCCCCCCCCNS(=O)(=O)N[C@H]1OC[C@@H](O)[C@@H](O)[C@@H]1O`: the MIC90 was 62 µg/mL (≈ 168 µM).

`CCCCCCCCCCCCNS(=O)(=O)N[C@H]1OC[C@@H](O)[C@@H](O)[C@@H]1O`: the MIC90 came to 250 µg/mL (≈ 630 µM).

In turn, `CCCCCCCCCCCCCCNS(=O)(=O)N[C@H]1OC[C@@H](O)[C@@H](O)[C@@H]1O` returned an MIC90 of more than 1000 µg/mL.

Turning to `CCCCCCN(CCCCCC)S(=O)(=O)N[C@H]1OC[C@@H](O)[C@@H](O)[C@@H]1O`, the MIC90 is 125 µg/mL (≈ 315 µM).

In the case of `CCCCCCCCN(CCCCCCCC)S(=O)(=O)N[C@H]1OC[C@@H](O)[C@@H](O)[C@@H]1O`, the MIC90 amounted to 500 µg/mL (≈ 1100 µM).

Take `CCCCCCCCCCN(CCCCCCCCCC)S(=O)(=O)N[C@H]1OC[C@@H](O)[C@@H](O)[C@@H]1O`: the MIC90 was more than 1000 µg/mL.

In turn, `CCCCCCCCCCCCN(CCCCCCCCCCCC)S(=O)(=O)N[C@H]1OC[C@@H](O)[C@@H](O)[C@@H]1O` showed an MIC90 of more than 1000 µg/mL.

Compound `CC(C)CCCC(C)CCNS(=O)(=O)N[C@H]1OC[C@@H](O)[C@@H](O)[C@@H]1O` (stereo not given in full) gave an MIC90 of 125 µg/mL (≈ 339 µM).

`O=S(=O)(NCCOCCO)N[C@H]1OC[C@@H](O)[C@@H](O)[C@@H]1O` came in with an MIC90 of more than 1000 µg/mL.

On to `O=S(=O)(NCCOCCOCCO)N[C@H]1OC[C@@H](O)[C@@H](O)[C@@H]1O`, for which the MIC90 is more than 1000 µg/mL.

In turn, `O=S(=O)(NCCOCCOCCOCCO)N[C@H]1OC[C@@H](O)[C@@H](O)[C@@H]1O` yielded an MIC90 of more than 1000 µg/mL.

As for `NNC(=O)c1ccncc1` [ISONIAZID], the MIC90 was found to be 4 µg/mL (≈ 29.2 µM).
